Measured values reported in patent US20170172963A1, “COMPOSITIONS AND METHODS FOR THE PREVENTION AND OR TREATMENT OF SCHISTOSOMIASIS” (DSM IP ASSETS B.V., priority 2014, published 2017).
“And” between values parts separate entries of the source, which are not always exact repeats. Equal values may be shown once.

Experiments:
Format in all cases: in vivo, human
Schistosoma mansoni [1] = experiment: Example 1: stool egg counts (Kato-Katz, epg) and cure rate in infected school children, Menoufiya; settings: for % cure rate: children with 0 epg after week 9
Experimental: Approximately 2000 school children in villages of three districts in the Menoufiya governorate located about 100 km north of Cairo, Egypt were screened. Two microscopic slides of stool samples were examined for each child on 3 consecutive days by the Kato-Katz method and egg counts per gram (epg) were recorded. 66 children, 44 males and 22 females, 6-15 years old (mean±SD=11.7±1.6), with weight range of 25-52 kg (mean±SD=37.8±8.6), and epg of 24-384 were selected as test subjects. 20 sex, age, and social conditions-matched, parasite-free children were used as controls.
The 66 children were divided randomly into three groups whereby the first group of 20 children were given a single oral dose of Praziquantel (PZQ) (40 mg/kg body weight) on the first day of treatment and a placebo was given for the next three weeks (5 doses/week) (“PZQ-Placebo Treatment”). The PZQ was Distocide (Epico, El-Asher-Men-Ramadan City, Egypt). The placebo was 1 g VegCap, containing corn-soy (DSM Nutritional Products, Columbia, Md.). The second group of 23 children received ARA (10 mg/kg body weight/day) for 15 days over three weeks (5 days/week) (“ARA Treatment”) The ARA was 1 g VegCap (DSM) containing approximately 395 mg ARA/capsule. The third group of 23 children were given Praziquantel (40 mg/kg body weight) in the first day of treatment and then received 15 doses of ARA (10 mg/kg/day; 5 doses/week) (“PZQ+ARA Treatment”).
(§1) Approximately 10 ml blood were obtained from each child 2-3 days before the start of the treatment and 3 days after the end of the ARA (or ARA+PZQ) treatment, corresponding to 18 days after PZQ-only treatment. Stool samples were obtained from each child on 3 consecutive days 1 week after the end of the ARA treatment (corresponding to 4 weeks after the PZQ-only treatment) and 6 weeks after the end of the ARA treatment (corresponding to 9 weeks after the PZQ-only treatment). Epg was assessed on each stool sample.
(§2) Subjects having initial baseline epg counts <100 were classified as having low infection. Subjects having initial baseline epg counts >100 but <400 were classified as having moderate infection. Subjects having initial baseline epg counts >400 were classified as having high infection.

Schistosoma mansoni [2] = experiment: Example 2: stool egg counts (epg) and cure rate in infected school children, El Kafr Sheikh; design: % epg reduction: concentration or dose not given beside the values
Experimental: School children from El Kafr Sheikh were screened similar to those school children in Example 1 above.
(§3) The children were divided randomly into three groups whereby the first group of children were given a single oral dose of Praziquantel (PZQ) (40 mg/kg body weight) on the first day of treatment and a placebo was given for the next three weeks (5 doses/week) (“PZQ-Placebo Treatment”). The PZQ was Distocide (Epico, El-Asher-Men-Ramadan City, Egypt). The placebo was 1 g VegCap, containing corn-soy (DSM Nutritional Products, Columbia, Md.). The second group of children received ARA (10 mg/kg body weight/day) for 15 days over three weeks (5 days/week) (“ARA Treatment”). The ARA was 1 g VegCap (DSM) containing approximately 395 mg ARA/capsule. The third group of children were given Praziquantel (40 mg/kg body weight) in the first day of treatment and then received 15 doses of ARA (10 mg/kg/day; 5 doses/week) (“PZQ-ARA Treatment”).
as §1, §2

IL-10 = experiment: Example 2: plasma IL-10 level by capture ELISA after treatment; settings: for Median IL-10 after treatment / % reduction in IL-10 levels: plasma; for Median IL-10 after treatment: 3 days after end of ARA treatment (18 days after PZQ); for % reduction in IL-10 levels: after treatment vs baseline
Experimental: as §3, §1
(§4) Plasma was retrieved from heparinized blood following centrifugation at 400 g for 20 minutes and stored at −76° C. until assayed by capture enzyme-linked immunosorbent assay (ELISA) for levels of IL-10 and IFN-γ (ELISA MAX™ Set, BioLegend, San Diego, Calif.) according to the manufacturer's protocol.

IFN-γ = experiment: Example 2: plasma IFN-γ level by capture ELISA after treatment; settings: for Median IFN-γ after treatment / % reduction in IFN-γ levels: plasma; for Median IFN-γ after treatment: 3 days after end of ARA treatment (18 days after PZQ); for % reduction in IFN-γ levels: after treatment vs baseline
Experimental: as §3, §1, §4

[3] = low infection (baseline epg < 100)
[4] = moderate and high infection (baseline epg > 100)
[5] = initial baseline epg < 100, mean epg 6 weeks after treatment vs mean baseline epg
[6] = initial baseline epg > 100 and < 400, mean epg 6 weeks after treatment vs mean baseline epg
[7] = initial baseline epg > 400, mean epg 6 weeks after treatment vs mean baseline epg
[8] = low infection, initial baseline epg < 100
[9] = moderate infection, initial baseline epg > 100 and < 400

Structure (SMILES)	% cure rate (Schistosoma mansoni [1]; [3])	% cure rate (Schistosoma mansoni [1]; [4])	% epg reduction (Schistosoma mansoni [2]; [5])	% epg reduction (Schistosoma mansoni [2]; [6])	% epg reduction (Schistosoma mansoni [2]; [7])	% cured (Schistosoma mansoni [2]; [8])	% cured (Schistosoma mansoni [2]; [9])	Median IL-10 after treatment (IL-10)	% reduction in IL-10 levels (IL-10)	Median IFN-γ after treatment (IFN-γ)	% reduction in IFN-γ levels (IFN-γ)	further results
O=C(C1CCCCC1)N1CC(=O)N2CCc3ccccc3C2C1 (stereo not drawn) [PZQ, 2-(Cyclohexylcarbonyl)-1,2,3,6,7,11b-hexahydro-4H-pyrazino[2,1-a] isoquinolin-4-one, reference compound]	71%	67%	50%	70%	81%	57 (20/35) %	43 (10/23) %	36 pg/mL	42%	32.5 pg/mL	60%	epg After Week 4 (Schistosoma mansoni [1]; individual subjects with initial baseline epg < 100, stool 4 weeks after PZQ / 1 week after end of ARA, listed as PZQ-Placebo): 8 epg and 0 epg (9×) and 5 epg (2×); epg After Week 9 (Schistosoma mansoni [1]; individual subjects with initial baseline epg < 100, stool 9 weeks after PZQ / 6 weeks after end of ARA, listed as PZQ-Placebo): 10 epg and 4 epg and 0 epg (10×) and 6 epg and 20 epg; epg After Week 4 (Schistosoma mansoni [1]; individual subjects with initial baseline epg > 100, stool 4 weeks after PZQ / 1 week after end of ARA, listed as PZQ- Placebo): 0 epg (3×) and 16 epg; epg After Week 9 (Schistosoma mansoni [1]; individual subjects with initial baseline epg > 100, stool 9 weeks after PZQ / 6 weeks after end of ARA, listed as PZQ- Placebo): 0 epg (4×) and 10 epg and 30 epg; % cured (Schistosoma mansoni [2]; high infection, initial baseline epg > 400): 30 (8/26) %; % cured (Schistosoma mansoni [2]; high infection, initial baseline epg > 400, listed as PZQ-Placebo): 81%; % cured (Schistosoma mansoni [2]; low infection, initial baseline epg < 100, listed as PZQ-Placebo): 57%; % cured (Schistosoma mansoni [2]; moderate infection, initial baseline epg > 100 and < 400, listed as PZQ-Placebo): 70%
CCCCC/C=C\C/C=C\C/C=C\C/C=C\CCCC(=O)O [ARA, all-cis 5,8,11,14-eicosatetreanoic acid]	77%	50%	−2.6%	49%	65%	50% and 50 (22/43) %	49% and 28 (4/19) %	40 pg/mL	50%	25 pg/mL	70%	epg After Week 4 (Schistosoma mansoni [1]; individual subjects with initial baseline epg < 100, stool 4 weeks after PZQ / 1 week after end of ARA): 12 epg and 0 epg (4×) and 144 epg and 24 epg (2×) and 20 epg and 52 epg and 48 epg and 19 epg; epg After Week 9 (Schistosoma mansoni [1]; individual subjects with initial baseline epg < 100, stool 9 weeks after PZQ / 6 weeks after end of ARA): 0 epg (10×) and 376 epg and 20 epg and 42 epg; epg After Week 4 (Schistosoma mansoni [1]; individual subjects with initial baseline epg > 100, stool 4 weeks after PZQ / 1 week after end of ARA): 240 epg and 96 epg (3×) and 749 epg and 216 epg and 84 epg and 0 epg and 48 epg and 60 epg; epg After Week 9 (Schistosoma mansoni [1]; individual subjects with initial baseline epg > 100, stool 9 weeks after PZQ / 6 weeks after end of ARA): 0 epg (5×) and 108 epg and 48 epg and 28 epg and 20 epg and 152 epg; levels of circulating IL-10 (result in words) (IL-10; after treatment): more effective; levels of circulating IFN-γ (result in words) (IFN-γ; after treatment): more effective
